Reference: ChEMBL document CHEMBL5523743, “Identification of Psychoplastogenic Tropanes Lacking Muscarinic Activity” (J Med Chem, 2024)
Activity calls are given as the source filed them. No cut-off for these calls is given here.

Tests used:
Neuron [1] = test: Neuroplasticity effect in Wistar rat brain cortical neuron assessed as increase in neurite outgrowth at 0.25 to 10 uM after 72 hrs; type: functional, cell-based; settings: dose 0.25-10 µM
[2] = molecular target: T1, Muscarinic acetylcholine receptor M4 (Homo sapiens) (UniProt P08173); test: Agonist activity at M4 receptor (unknown origin) by GTPgamma[35S] based Topcount scintillation counting method; type: functional
T1 sequence (whole entry): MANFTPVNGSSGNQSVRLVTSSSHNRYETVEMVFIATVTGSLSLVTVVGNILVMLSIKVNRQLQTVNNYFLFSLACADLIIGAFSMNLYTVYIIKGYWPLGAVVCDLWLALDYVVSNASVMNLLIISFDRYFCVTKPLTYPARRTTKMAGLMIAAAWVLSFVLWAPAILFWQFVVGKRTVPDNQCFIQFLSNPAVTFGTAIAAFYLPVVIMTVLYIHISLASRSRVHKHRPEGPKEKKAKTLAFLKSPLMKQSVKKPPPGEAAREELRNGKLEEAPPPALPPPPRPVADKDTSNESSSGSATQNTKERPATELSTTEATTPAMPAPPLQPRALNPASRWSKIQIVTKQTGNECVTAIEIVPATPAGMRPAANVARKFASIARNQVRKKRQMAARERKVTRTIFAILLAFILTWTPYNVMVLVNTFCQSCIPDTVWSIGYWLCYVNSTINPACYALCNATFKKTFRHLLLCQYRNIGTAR

[3] = molecular target: T2, 5-hydroxytryptamine receptor 2C (Homo sapiens) (UniProt P28335); test: Agonist activity at recombinant human 5HT2CR expressed in CHO-K1 cells incubated for 60 mins by HTRF method; type: functional, cell-based
T2 sequence (whole entry): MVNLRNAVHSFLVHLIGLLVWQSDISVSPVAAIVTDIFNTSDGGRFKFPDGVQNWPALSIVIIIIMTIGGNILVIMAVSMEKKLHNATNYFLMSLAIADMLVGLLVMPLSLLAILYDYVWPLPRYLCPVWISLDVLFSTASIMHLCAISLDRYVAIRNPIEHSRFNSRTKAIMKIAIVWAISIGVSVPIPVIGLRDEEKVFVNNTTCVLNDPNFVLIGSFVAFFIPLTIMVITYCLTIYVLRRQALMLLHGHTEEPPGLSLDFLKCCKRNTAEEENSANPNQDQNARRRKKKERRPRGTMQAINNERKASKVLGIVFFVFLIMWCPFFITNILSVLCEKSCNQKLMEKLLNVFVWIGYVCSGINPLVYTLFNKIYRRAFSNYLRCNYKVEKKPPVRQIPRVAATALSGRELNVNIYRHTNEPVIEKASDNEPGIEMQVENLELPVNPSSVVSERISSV

[4] = molecular target: 5-hydroxytryptamine receptor 2A (Homo sapiens) (UniProt P28223); test: Displacement of [3H]-DOI from 5HT2AR (unknown origin) by Topcount scintillation counting method
[5] = molecular target: Muscarinic acetylcholine receptor M3 (Homo sapiens) (UniProt P20309); test: Agonist activity at recombinant human M3 receptor expressed in CHO-K1 cells incubated for 15 mins by aequorin assay; type: functional, cell-based
[6] = molecular target: T3, Muscarinic acetylcholine receptor M5 (Homo sapiens) (UniProt P08912); test: Agonist activity at recombinant human M5 receptor expressed in CHO-K1 cells incubated for 15 mins by aequorin assay; type: functional, cell-based
T3 sequence (whole entry): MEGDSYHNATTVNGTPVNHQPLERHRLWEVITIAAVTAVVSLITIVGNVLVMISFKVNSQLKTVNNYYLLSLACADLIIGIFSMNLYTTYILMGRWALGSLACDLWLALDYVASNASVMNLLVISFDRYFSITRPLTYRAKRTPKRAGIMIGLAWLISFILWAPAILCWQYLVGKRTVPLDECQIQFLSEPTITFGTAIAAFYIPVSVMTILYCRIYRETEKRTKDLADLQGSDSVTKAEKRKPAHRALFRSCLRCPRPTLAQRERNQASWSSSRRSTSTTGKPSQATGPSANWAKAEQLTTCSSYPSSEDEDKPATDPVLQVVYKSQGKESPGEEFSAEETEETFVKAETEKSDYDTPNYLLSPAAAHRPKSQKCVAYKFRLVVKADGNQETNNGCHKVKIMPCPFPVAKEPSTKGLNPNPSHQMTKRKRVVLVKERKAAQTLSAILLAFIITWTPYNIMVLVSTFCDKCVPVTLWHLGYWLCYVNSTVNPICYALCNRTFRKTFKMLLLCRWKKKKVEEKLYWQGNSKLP

[7] = molecular target: T4, Muscarinic acetylcholine receptor M2 (Homo sapiens) (UniProt P08172); test: Agonist activity at M2 receptor (unknown origin) by GTPgamma[35S] based Topcount scintillation counting method; type: functional
T4 sequence (whole entry): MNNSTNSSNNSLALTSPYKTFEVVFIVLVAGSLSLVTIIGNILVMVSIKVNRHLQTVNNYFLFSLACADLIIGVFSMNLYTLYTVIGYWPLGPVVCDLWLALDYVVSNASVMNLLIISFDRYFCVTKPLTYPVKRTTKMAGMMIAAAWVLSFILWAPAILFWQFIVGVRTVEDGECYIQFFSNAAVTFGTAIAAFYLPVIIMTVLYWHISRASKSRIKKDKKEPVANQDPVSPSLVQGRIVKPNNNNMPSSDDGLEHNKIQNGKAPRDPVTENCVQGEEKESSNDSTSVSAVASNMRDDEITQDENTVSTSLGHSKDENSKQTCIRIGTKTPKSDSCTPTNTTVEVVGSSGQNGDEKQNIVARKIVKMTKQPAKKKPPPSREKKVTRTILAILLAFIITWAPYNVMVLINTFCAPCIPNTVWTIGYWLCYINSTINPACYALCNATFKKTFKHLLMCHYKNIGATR

[8] = molecular target: T2, 5-hydroxytryptamine receptor 2C (Homo sapiens); test: Displacement of [3H]-DOI from 5HT2CR (unknown origin) by Topcount scintillation counting method
[9] = molecular target: 5-hydroxytryptamine receptor 2A (Homo sapiens) (UniProt P28223); test: Agonist activity at recombinant human 5HT2AR expressed in CHO-K1 cells incubated for 60 mins by HTRF method; type: functional, cell-based
[10] = molecular target: T5, Muscarinic acetylcholine receptor M1 (Homo sapiens) (UniProt P11229); test: Agonist activity at recombinant human M1 receptor expressed in CHO-K1 cells incubated for 15 mins by aequorin assay; type: functional, cell-based
T5 sequence (whole entry): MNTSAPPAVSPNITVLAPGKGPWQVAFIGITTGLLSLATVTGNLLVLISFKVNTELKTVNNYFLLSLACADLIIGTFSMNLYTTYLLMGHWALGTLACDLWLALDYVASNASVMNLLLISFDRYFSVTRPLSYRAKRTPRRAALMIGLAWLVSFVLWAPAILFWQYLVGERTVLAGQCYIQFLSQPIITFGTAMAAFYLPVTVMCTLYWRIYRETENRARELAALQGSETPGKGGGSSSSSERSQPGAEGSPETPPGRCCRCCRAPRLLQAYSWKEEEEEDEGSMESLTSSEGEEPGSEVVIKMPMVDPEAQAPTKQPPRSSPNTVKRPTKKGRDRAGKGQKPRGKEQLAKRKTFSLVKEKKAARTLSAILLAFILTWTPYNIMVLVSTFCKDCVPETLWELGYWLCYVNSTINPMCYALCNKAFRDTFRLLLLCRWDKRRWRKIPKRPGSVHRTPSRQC

[11] = molecular target: T1, Muscarinic acetylcholine receptor M4 (Homo sapiens); test: Displacement of [3H]-Scopolamine from M4 receptor (unknown origin) by Topcount scintillation counting method
[12] = molecular target: T3, Muscarinic acetylcholine receptor M5 (Homo sapiens); test: Displacement of [3H]-Scopolamine from M5 receptor (unknown origin) by Topcount scintillation counting method
[13] = molecular target: Muscarinic acetylcholine receptor M3 (Homo sapiens) (UniProt P20309); test: Antagonist activity at recombinant human M3 receptor expressed in CHO-K1 cells incubated for 15 mins in presence of acetylcholine by aequorin assay; type: functional, cell-based
[14] = molecular target: T4, Muscarinic acetylcholine receptor M2 (Homo sapiens); test: Antagonist activity at M2 receptor (unknown origin) incubated for 1 hr in presence of acetylcholine by GTPgamma[35S] based Topcount scintillation counting method; type: functional
[15] = molecular target: 5-hydroxytryptamine receptor 2A (Homo sapiens) (UniProt P28223); test: Antagonist activity at recombinant human 5HT2AR expressed in CHO-K1 cells incubated for 60 mins in presence of alpha-Me-5HT by HTRF method; type: functional, cell-based
[16] = molecular target: T3, Muscarinic acetylcholine receptor M5 (Homo sapiens); test: Antagonist activity at recombinant human M5 receptor expressed in CHO-K1 cells incubated for 15 mins in presence of acetylcholine by aequorin assay; type: functional, cell-based
[17] = molecular target: T5, Muscarinic acetylcholine receptor M1 (Homo sapiens); test: Antagonist activity at recombinant human M1 receptor expressed in CHO-K1 cells incubated for 15 mins in presence of acetylcholine by aequorin assay; type: functional, cell-based
[18] = molecular target: T4, Muscarinic acetylcholine receptor M2 (Homo sapiens); test: Displacement of [3H]-Scopolamine from M2 receptor (unknown origin) by Topcount scintillation counting method
[19] = molecular target: Muscarinic acetylcholine receptor M3 (Homo sapiens) (UniProt P20309); test: Displacement of [3H]-Scopolamine from M3 receptor (unknown origin) by Topcount scintillation counting method
[20] = molecular target: T1, Muscarinic acetylcholine receptor M4 (Homo sapiens); test: Antagonist activity at M4 receptor (unknown origin) incubated for 1 hr in presence of oxotremorine by GTPgamma[35S] based Topcount scintillation counting method; type: functional
[21] = molecular target: T5, Muscarinic acetylcholine receptor M1 (Homo sapiens); test: Displacement of [3H]-Scopolamine from M1 receptor (unknown origin) by Topcount scintillation counting method
[22] = molecular target: T2, 5-hydroxytryptamine receptor 2C (Homo sapiens); test: Antagonist activity at recombinant human 5HT2CR expressed in CHO-K1 cells incubated for 60 mins in presence of alpha-Me-5HT by HTRF method; type: functional, cell-based
Neuron [23] = test: Cytotoxicity against Wistar rat brain cortical neurons assessed as decrease in average number of neurites per neuron at 0.25 to 10 uM; type: toxicity, cell-based; settings: dose 0.25-10 µM
Neuron [24] = test: Cytotoxicity against Wistar rat brain cortical neurons assessed as neurite restriction; type: toxicity, cell-based; settings: dose 0.25-10 µM
Neuron [25] = test: Neuroplasticity effect in Wistar rat brain cortical neuron assessed as increase in neurite outgrowth after 72 hrs; type: functional, cell-based; settings: dose 0.25-10 µM

Chain of 5-hydroxytryptamine receptor 2A (Homo sapiens) (P28223 whole entry): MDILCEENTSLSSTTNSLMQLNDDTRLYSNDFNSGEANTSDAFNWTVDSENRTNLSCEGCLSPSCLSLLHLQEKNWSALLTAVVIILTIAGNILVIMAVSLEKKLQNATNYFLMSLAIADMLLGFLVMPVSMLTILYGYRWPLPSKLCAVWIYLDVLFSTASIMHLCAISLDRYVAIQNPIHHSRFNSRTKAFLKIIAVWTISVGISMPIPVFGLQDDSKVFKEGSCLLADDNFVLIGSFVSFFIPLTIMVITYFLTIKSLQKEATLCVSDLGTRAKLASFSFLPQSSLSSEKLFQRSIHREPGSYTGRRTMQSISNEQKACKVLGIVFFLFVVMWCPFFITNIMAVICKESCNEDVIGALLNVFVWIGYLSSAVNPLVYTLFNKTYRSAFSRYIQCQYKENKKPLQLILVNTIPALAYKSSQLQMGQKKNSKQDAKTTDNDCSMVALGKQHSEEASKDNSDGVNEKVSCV
Chain of Muscarinic acetylcholine receptor M3 (Homo sapiens) (P20309 whole entry, looked up): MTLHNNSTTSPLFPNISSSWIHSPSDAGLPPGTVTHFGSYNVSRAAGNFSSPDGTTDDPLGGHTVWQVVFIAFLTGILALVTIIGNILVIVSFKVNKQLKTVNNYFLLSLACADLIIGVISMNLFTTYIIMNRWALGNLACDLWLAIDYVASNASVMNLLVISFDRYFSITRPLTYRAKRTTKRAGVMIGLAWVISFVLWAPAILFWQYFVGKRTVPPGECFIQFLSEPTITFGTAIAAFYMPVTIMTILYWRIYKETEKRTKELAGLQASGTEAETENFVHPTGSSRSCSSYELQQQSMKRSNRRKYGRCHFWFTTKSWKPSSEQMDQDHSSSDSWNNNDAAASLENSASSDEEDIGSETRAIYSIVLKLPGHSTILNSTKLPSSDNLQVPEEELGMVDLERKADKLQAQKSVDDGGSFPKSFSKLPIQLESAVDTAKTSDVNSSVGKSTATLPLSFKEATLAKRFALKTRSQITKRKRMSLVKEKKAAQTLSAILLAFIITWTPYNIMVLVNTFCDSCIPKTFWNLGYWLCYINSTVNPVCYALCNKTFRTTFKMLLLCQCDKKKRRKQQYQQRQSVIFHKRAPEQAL

CN1[C@H]2CCC[C@@H]1[C@@H](c1ccccc1)C2
Activity (Neuron [1]): inactive

c1ccc(CCN2[C@@H]3CCC[C@H]2CC3)cc1
Activity (Neuron [1]): Active

CN1[C@@H]2CCC[C@H]1[C@H]1[C@@H]2N1c1ccc2[nH]ccc2c1
Activity (Neuron [1]): inactive

COc1ccccc1CCN1[C@@H]2CCC[C@H]1CC2
Activity ([2]; filed as agonist): Active
Activity ([3]; filed as agonist): Active
Activity ([4]; filed as agonist): Active
Activity ([5]; filed as agonist): Active
Activity ([6]; filed as agonist): Active
Activity ([7]; filed as agonist): Active
Activity ([8]; filed as agonist): Active
Activity ([9]; filed as agonist): Active
Activity ([10]; filed as agonist): Active

O=C1C[C@H]2C[C@H](O)[C@@H](C1)N2CCc1c[nH]c2ccccc12
Activity (Neuron [1]): Active

COc1ccc(CN2[C@H]3CC(=O)C[C@@H]2[C@@H](O)C3)cc1
Activity [11]: inactive
Activity [12]: inactive
Activity [2]: inactive
Activity [13]: inactive
Activity [14]: inactive
Activity [3]: inactive
Activity [15]: inactive
Activity (Neuron [1]): Active
Activity [16]: inactive
Activity [17]: inactive
Activity [4]: inactive
Activity [5]: inactive
Activity [18]: inactive
Activity [19]: inactive
Activity [6]: inactive
Activity [20]: inactive
Activity [21]: inactive
Activity [7]: inactive
Activity [8]: inactive
Activity [9]: inactive
Activity [10]: inactive
Activity [22]: inactive

CN1[C@H]2CCC[C@@H]1[C@@H](c1ccccc1F)C2
Activity (Neuron [23]): Toxic
Activity (Neuron [1]): inactive

CN1[C@H]2C[C@H](O)C[C@@H]1[C@@H](c1ccccc1)C2
Activity (Neuron [1]): inactive

CN1[C@H]2C[C@@H](OC(=O)c3ccccc3)C[C@@H]1[C@@H](c1ccccc1)C2
Activity (Neuron [1]): Active
Activity ([17]; filed as antagonist): Active

CN1[C@H]2C[C@H](OC(=O)c3ccccc3)C[C@@H]1[C@@H](c1ccccc1)C2
Activity (Neuron [1]): inactive
Activity ([17]; filed as antagonist): Active

CN1[C@H]2CCC[C@@H]1[C@@H](c1cccc(F)c1)C2
Activity (Neuron [1]): Active
Activity ([17]; filed as antagonist): Active

CN1[C@H]2CC[C@@H]1C=C(c1c[nH]c3ccccc13)C2
Activity (Neuron [1]): inactive
Activity ([22]; filed as antagonist): Active

CN1[C@H]2C[C@@H](O)C[C@@H]1[C@@H](c1ccccc1)C2
Activity (Neuron [1]): inactive

COc1cccc(CCN2[C@@H]3CCC[C@H]2CC3)c1
Activity (Neuron [1]): Active

CN1[C@@H]2CC[C@H]1C[C@H](OC(=O)c1ccccc1)C2
Activity (Neuron [1]): inactive

Fc1ccccc1CCN1[C@@H]2CCC[C@H]1CC2
Activity (Neuron [1]): Active

COc1ccc2[nH]c3c(c2c1)[C@H]1CC[C@@H](C3)N1C
Activity (Neuron [1]): inactive

CN1[C@@H]2CCC[C@H]1[C@H]1[C@@H]2N1c1cccc2[nH]ccc12
Activity (Neuron [24]): Dose-Dependent Effect
Activity (Neuron [1]): inactive

COc1ccc([C@H]2C[C@@H]3CCC[C@H]2N3C)cc1
Activity (Neuron [23]): Toxic
Activity (Neuron [1]): inactive

COc1ccc(CCN2[C@@H]3CCC[C@H]2CC3)cc1
Activity (Neuron [23]): Toxic
Activity (Neuron [1]): inactive

CN1[C@@H]2CCC[C@H]1[C@H]1[C@@H]2N1c1cccnc1
Activity (Neuron [1]): inactive

CN1[C@H]2CCC[C@@H]1[C@@H](c1ccc(F)cc1)C2
Activity (Neuron [1]): inactive

CN1[C@@H]2CC[C@H]1C[C@H](OC(=O)/C=C/c1ccccc1)C2
Activity (Neuron [25]): Dose-Dependent Effect

COc1ccccc1[C@H]1C[C@@H]2CCC[C@H]1N2C
Activity (Neuron [1]): inactive

COc1cccc([C@H]2C[C@@H]3CCC[C@H]2N3C)c1
Activity (Neuron [1]): Active
Activity ([17]; filed as antagonist): Active

CN1[C@@H]2CCC[C@H]1[C@H]1[C@@H]2N1c1ccccc1
Activity (Neuron [1]): inactive

Fc1ccc(CCN2[C@@H]3CCC[C@H]2CC3)cc1
Activity (Neuron [1]): Active
